We go through 2 compounds from PMC5994430, “Mitochondrial Delivery of Phenol Substructure Triggers Mitochondrial Depolarization and Apoptosis of Cancer Cells” (Frontiers in Pharmacology, 2018).

In general, IC50 refers to the concentration needed to halve the response being measured.

For data set [1], the system named is A549 cells. Kind of data set: Bright field morphological analysis. Format: cell-based, Human. The following applies: 0.1 μM, 24 h, compared with untreated cells. From the text: (§1) Human colon cancer HT29 cells, colon-derived normal fibroblast CCD-18Co cells, lung cancer A549 cells, normal human bronchial epithelial (immortalized with adenovirus 12-SV40 virus hybrid Ad12SV40) BEAS-2B cells, breast cancer MDA-MB-231 cells, normal breast epithelial MCF10A cells, human osteosarcoma U-2OS cells were purchased from ATCC (Manassas, VA, United States). Primary osteoblasts were generated as reported previously ([Buondonno et al., 2016]). HMM and HMC were primary cells stabilized in culture as described ([Aldieri et al., 2004]). The use of primary cells was approved by Ethical Committee of the San Luigi Gonzaga Hospital, Orbassano, (protocol #126/2016). All subjects gave written informed consent in accordance with the Declaration of Helsinki. Cells were maintained in medium supplemented with 10% v/v fetal bovine serum, 1% v/v penicillin-streptomycin, 1% v/v L-glutamine. Morphological analysis was performed with a bright field microscope (Leica Microsystems, Wetzlar, Germany). At least 5 fields/experimental condition were examined.
(§2) FIGURE 7 Effects of phenol TPP-derivatives on mitochondria-dependent apoptosis. A549 and BEAS-2B cells were incubated 24 h in fresh medium (ctrl) or in medium containing 0.1 μM of 1 or 2. (A,B) The activity of caspase 9 and 3 was measured fluorimetrically, in duplicates. Data are means ± SD (n = 3). For both panels: ^∗p < 0.001 vs. A549 ctrl cells; °p < 0.001 for BEAS-2B cells vs. the corresponding condition in A549 cells. (C,D) Cell cycle distribution, measured in duplicates. Data are means ± SD (n = 3). For both panels: ^∗p < 0.001 vs. A549 ctrl cells: °p < 0.001 for BEAS-2B cells vs. the corresponding condition in A549 cells. (E) Bright field microscope analysis of cells. Magnification: 60 × objective (0.52 numerical aperture); 10 × ocular lens. Bar: 20 μM. The micrographs are representative of three experiments with similar results.

In data set [2] the test system is A549 cells. Kind of data set: Cell cycle analysis (propidium iodide flow cytometry). The class given is cell-based, Human. The conditions noted are these: 0.1 μM, 24 h. The method, then:
(§3) 1 × 10^4 cells were harvested, washed with PBS, treated with 0.25 mg/ml RNAse and stained for 15 min with 50 μg/ml propidium iodide. Cell cycle distribution was analyzed by Guava® easyCyte flow cytometer (Millipore, Billerica, MA, United States), using the InCyte software (Millipore).
as §2

The next data set relates to BEAS-2B cells. The description is as above. Format: cell-based, Human. The following applies: 0.1 μM, 24 h. The method, then: as §3, §2
The next data set relates to mitochondrial ROS. Briefly: Mitochondrial ROS (MitoSOX Red) in BEAS-2B cells. Format: cell-based, Human. The following applies: 0.1 μM, 4 h. The method, then: The amount of ROS in mitochondrial extracts was measured fluorimetrically by incubating cell suspension at 37°C for 10 min with 10 μM of MitoSOX Red probe (Invitrogen Life Technologies), as per manufacturer’s instructions. Results were expressed as nmoles/mg mitochondrial proteins, using a calibration curve previously set with serial dilution of H2O2.
[t] Continuedof three experiments with similar results. (D) Confocal analysis of mitochondrial staining with MitoTracker® Green FM. Magnification: 60 × objective (0.52 numerical aperture); 10 × ocular lens. Bar: 10 μM. The micrographs are representative of three experiments with similar results. (E,F) The electron transport was measured spectrophotometrically in duplicates. ATP levels in mitochondrial extracts was measured by a chemiluminescence-based assay, in duplicates. Data are means ± SD (n = 3). For both panels: ^∗p < 0.001 vs. A549 ctrl cells; °p < 0.001 for BEAS-2B cells vs. the corresponding condition in A549 cells. (G,H) ROS amount in mitochondrial extracts and mitochondrial damage were measured fluorimetrically, in duplicates. Data are means ± SD (n = 3). […] There were no statistically significant differences between untreated (ctrl) and compound 1/compound 2-treated BEAS-2B cells for all the parameters analyzed in this figure.

Data set [3] concerns human cancer cell lines and normal cells. Briefly: Extracellular LDH release, panel of cancer cell lines and normal cells. Format: cell-based. The conditions noted are these: 24 h, 0.1, 1 and 10 μM. An excerpt: Human colon cancer HT29 cells, colon-derived normal fibroblast CCD-18Co cells, lung cancer A549 cells, normal human bronchial epithelial (immortalized with adenovirus 12-SV40 virus hybrid Ad12SV40) BEAS-2B cells, breast cancer MDA-MB-231 cells, normal breast epithelial MCF10A cells, human osteosarcoma U-2OS cells were purchased from ATCC (Manassas, VA, United States). Primary osteoblasts were generated as reported previously ([Buondonno et al., 2016]). HMM and HMC were primary cells stabilized in culture as described ([Aldieri et al., 2004]). The use of primary cells was approved by Ethical Committee of the San Luigi Gonzaga Hospital, Orbassano, (protocol #126/2016). […]
The extracellular release of LDH, considered an index of cell damage and necrosis, was measured spectrophotometrically, as reported ([Riganti et al., 2013b]). […] LDH activity was measured in the extracellular medium and in the cell lysate: 50 μl of extracellular medium or 5 μl of cell lysate were incubated at 37°C with 5 mM NADH. The reaction was started by adding 20 mM pyruvic acid and was monitored for 6 min, measuring absorbance at 340 nm using a Synergy HT Multi-Detection Microplate Reader (Bio-Tek Instruments, Winoosky, MT, United States). […] Both intracellular and extracellular enzyme activities were expressed as μmol NADH oxidized/min/dish. […] IC50 was calculated with the CompuSyn software^1. […]
For orientation: Release of lactate dehydrogenase indicates damage to the cell membrane.

Data set [4] has the same test system. Briefly: Cell viability, panel of cancer cell lines and normal cells. Format: cell-based. The conditions noted are these: for IC50: Homo sapiens, all cancer cell lines examined; for concentrations with cytotoxic activity: cancer cell lines in vitro.
From the text: as §1
The extracellular release of LDH, considered an index of cell damage and necrosis, was measured spectrophotometrically, as reported ([Riganti et al., 2013b]). The extracellular medium was centrifuged at 12,000 × g for 15 min to pellet cellular debris, the cells were washed with fresh medium, detached with 0.01% trypsin/EDTA, re-suspended in 0.2 ml of 82.3 mM triethanolamine phosphate-HCl (pH 7.6), and sonicated on ice with two 10-sec bursts. LDH activity was measured in the extracellular medium and in the cell lysate: 50 μl of extracellular medium or 5 μl of cell lysate were incubated at 37°C with 5 mM NADH. The reaction was started by adding 20 mM pyruvic acid and was monitored for 6 min, measuring absorbance at 340 nm using a Synergy HT Multi-Detection Microplate Reader (Bio-Tek Instruments, Winoosky, MT, United States). The reaction kinetics were linear throughout the time of measurement. Both intracellular and extracellular enzyme activities were expressed as μmol NADH oxidized/min/dish. The results were expressed as percentage of extracellular LDH versus total (intracellular plus extracellular) LDH. Cell viability was measured by the neutral red staining method, as previously reported ([Riganti et al., 2015b]). The absorbance of untreated cells was considered as 100% viability; the results were expressed as percentage of viable cells versus untreated cells. IC50 was calculated with the CompuSyn software^1.
FIGURE 4 Effects of phenolic TPP-derivatives on the viability of cancer cell lines and normal cells. Cells were incubated 72 h in fresh medium (0) or with increasing concentrations (0.1, 1, and 10 μM) of 1 and 2. Cell viability was measured spectrophotometrically in quadruplicates. […]

On to `CC(=O)Oc1ccc(C[P+](c2ccccc2)(c2ccccc2)c2ccccc2)cc1.[Br-]` [Compound 1], for which the cell morphology result in the data set with A549 cells [1] was “reduced cell number and a clear round-shaped morphology”. In the data set with A549 cells [2], the “percentage of cells in S-phase” value is given as “reduced percentage” and the “percentage of cells in the sub-Go phase” value was “increased”. Besides, in the data set on BEAS-2B cells, the cell cycle distribution entry is given as “no change”. Also, the “mitochondrial ROS” value in the data set with mitochondrial ROS was “negligible modifications”. Also, in data set [3], the “release of LDH in the extracellular medium” value was “dose-dependent increase”. Besides, in data set [4], the half-inhibitory concentration (IC50) is < 10 µM and the “concentrations with cytotoxic activity” value is 100 to 1000 nM.
Regarding `O=C(Oc1ccc(C[P+](c2ccccc2)(c2ccccc2)c2ccccc2)cc1C(F)(F)F)c1ccccc1.[Br-]` [Compound 2], the cell morphology entry with A549 cells [1] was “reduced cell number and a clear round-shaped morphology”. Also, in the data set on A549 cells [2], the “percentage of cells in S-phase” value is “reduced percentage” and the “percentage of cells in the sub-Go phase” value was “increased”. Further, the cell cycle distribution result with BEAS-2B cells is recorded as “no change”. The “mitochondrial ROS” value in the data set with mitochondrial ROS is “negligible modifications”. Moreover, the “release of LDH in the extracellular medium” value in data set [3] is reported as “dose-dependent increase”. In addition, in data set [4], the IC50 is < 10 µM and the “concentrations with cytotoxic activity” value lay within 100 to 1000 nM.
